Experimental findings from ChEMBL document CHEMBL3886504, “Pyridinones/pyrazinones, method of making, and method of use thereof” (2016) are described below.

This experiment concerns the target Tyrosine-protein kinase BTK (Homo sapiens, UniProt Q06187). The experiment in a line: Biochemical Btk Assay: A generalized procedure for a standard biochemical Btk Kinase Assay that can be used to test Formula I compounds is as follows. A master mix minus Btk enzyme is prepared containing 1x Cell Signaling kinase buffer (25 mM Tris-HCl, pH 7.5, 5 mM beta-glycerophosphate, 2 mM dithiothreitol, 0.1 mM Na3VO4, 10 mM MgCl2), 0.5 μM Promega PTK Biotinylated peptide substrate 2, and 0.01% BSA. A master mix plus Btk enzyme is prepared containing 1x Cell Signaling kinase buffer, 0.5 μM PTK Biotinylated peptide substrate 2, 0.01% BSA, and 100 ng/well (0.06 mU/well) Btk enzyme. Btk enzyme is prepared as follows: full length human wildtype Btk (accession number NM-000061) with a C-terminal V5 and 6xHis tag was subcloned into pFastBac vector for making baculovirus carrying this epitope-tagged Btk.

Chain of Tyrosine-protein kinase BTK (Q06187 whole entry): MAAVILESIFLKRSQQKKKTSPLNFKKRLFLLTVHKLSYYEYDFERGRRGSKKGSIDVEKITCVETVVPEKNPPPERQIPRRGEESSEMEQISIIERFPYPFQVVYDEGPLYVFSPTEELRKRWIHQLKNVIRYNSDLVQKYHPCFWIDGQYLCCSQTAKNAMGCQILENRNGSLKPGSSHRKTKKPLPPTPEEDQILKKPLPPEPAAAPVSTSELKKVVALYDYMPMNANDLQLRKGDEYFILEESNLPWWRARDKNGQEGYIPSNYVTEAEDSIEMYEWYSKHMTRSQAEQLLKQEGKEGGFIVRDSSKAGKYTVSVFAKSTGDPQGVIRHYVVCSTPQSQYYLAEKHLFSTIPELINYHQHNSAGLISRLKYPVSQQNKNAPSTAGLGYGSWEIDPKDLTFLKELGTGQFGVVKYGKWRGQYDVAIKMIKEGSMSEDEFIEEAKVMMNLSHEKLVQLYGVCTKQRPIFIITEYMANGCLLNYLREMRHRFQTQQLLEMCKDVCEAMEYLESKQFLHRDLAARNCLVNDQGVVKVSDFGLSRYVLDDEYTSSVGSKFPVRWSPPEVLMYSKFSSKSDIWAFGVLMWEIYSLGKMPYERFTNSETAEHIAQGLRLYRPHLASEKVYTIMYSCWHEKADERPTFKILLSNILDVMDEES

Regarding `Cc1c(-c2cn(C)c(=O)c(Nc3ccc(C4C(=O)N(C)CCN4C)cc3)n2)cccc1N1Cc2cc(C(C)(C)C)ccc2C1=O` (stereo not drawn), the IC50 was found to be 29.4 nM.
The value for `Cc1c(-c2cn(C)c(=O)c(Nc3ccc(C4C(=O)N(C)CCN4C)cc3)n2)cccc1N1Cc2cc(N3CCCCC3)ccc2C1=O` (stereo not drawn) was 245 nM.
The value for `Cc1c(-c2cn(C)c(=O)c(Nc3ccc(C(=O)N4CCOCC4)cc3)n2)cccc1N1Cc2cc(C(C)(C)C)ccc2C1=O` was 36.4 nM.

In general, IC50 refers to the point on the concentration scale where inhibition reaches its midpoint.
